Consider 7 compounds from ChEMBL document CHEMBL5576113, “A method for estimation of plasma protein binding using diffusion ordered NMR spectroscopy (DOSY)” (RSC Med Chem, 2024).

The structures appear in SMILES notation.

Data set [1] has as its target T1, Albumin (Bos taurus, UniProt P02769). Briefly: Plasma protein binding in bovine serum albumin assessed as fraction bound at 20:1 ratio of compound and BSA by 1H DOSY NMR spectrophotometric analysis. In kind it is ADME. The following applies: cattle, read-out: PPB (converted).
Data set [2] has as its target T1, Albumin. Nature of the data set: Plasma protein binding in bovine serum albumin assessed as fraction bound at 5:1 ratio of compound and BSA by 1H DOSY NMR spectrophotometric analysis. Format: ADME. Conditions: cattle, read-out: PPB (converted).
The target in data set [3] is T1, Albumin. Briefly: Plasma protein binding in bovine serum albumin assessed as fraction bound at 10:1 ratio of compound and BSA by 1H DOSY NMR spectrophotometric analysis. Conditions: cattle, read-out: PPB (converted). In kind it is ADME.
In data set [4] the target is Albumin (Homo sapiens, UniProt P02768). Briefly: Plasma protein binding in human albumin at 1 to 20 ug/ml incubated for 30 mins. Format: ADME. Conditions: at 1 to 20 µg/mL, dose 1-20 µg/ml, read-out: PPB (converted).
Data set [5] is described as follows: Plasma protein binding in human plasma incubated for 18 hrs by equilibrium dialysis. On the technique in general: Equilibrium dialysis compares concentrations on both sides of a semipermeable membrane.

T1 sequence (P02769 whole entry): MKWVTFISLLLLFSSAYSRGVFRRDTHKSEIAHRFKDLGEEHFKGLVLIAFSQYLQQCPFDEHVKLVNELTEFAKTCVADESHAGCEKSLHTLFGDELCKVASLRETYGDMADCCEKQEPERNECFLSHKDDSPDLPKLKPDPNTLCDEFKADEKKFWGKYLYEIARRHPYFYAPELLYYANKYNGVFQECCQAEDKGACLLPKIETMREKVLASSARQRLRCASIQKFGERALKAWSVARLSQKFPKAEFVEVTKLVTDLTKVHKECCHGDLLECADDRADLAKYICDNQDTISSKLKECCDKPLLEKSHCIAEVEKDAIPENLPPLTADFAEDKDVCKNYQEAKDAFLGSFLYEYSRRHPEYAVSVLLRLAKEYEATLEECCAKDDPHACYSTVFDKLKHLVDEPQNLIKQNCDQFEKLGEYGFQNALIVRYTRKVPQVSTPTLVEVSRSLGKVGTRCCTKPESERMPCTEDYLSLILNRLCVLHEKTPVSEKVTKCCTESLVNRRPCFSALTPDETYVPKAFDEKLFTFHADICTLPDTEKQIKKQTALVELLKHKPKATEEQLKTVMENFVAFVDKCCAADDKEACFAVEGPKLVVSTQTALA
Albumin (Homo sapiens, UniProt P02768), sequence (P02768 whole entry): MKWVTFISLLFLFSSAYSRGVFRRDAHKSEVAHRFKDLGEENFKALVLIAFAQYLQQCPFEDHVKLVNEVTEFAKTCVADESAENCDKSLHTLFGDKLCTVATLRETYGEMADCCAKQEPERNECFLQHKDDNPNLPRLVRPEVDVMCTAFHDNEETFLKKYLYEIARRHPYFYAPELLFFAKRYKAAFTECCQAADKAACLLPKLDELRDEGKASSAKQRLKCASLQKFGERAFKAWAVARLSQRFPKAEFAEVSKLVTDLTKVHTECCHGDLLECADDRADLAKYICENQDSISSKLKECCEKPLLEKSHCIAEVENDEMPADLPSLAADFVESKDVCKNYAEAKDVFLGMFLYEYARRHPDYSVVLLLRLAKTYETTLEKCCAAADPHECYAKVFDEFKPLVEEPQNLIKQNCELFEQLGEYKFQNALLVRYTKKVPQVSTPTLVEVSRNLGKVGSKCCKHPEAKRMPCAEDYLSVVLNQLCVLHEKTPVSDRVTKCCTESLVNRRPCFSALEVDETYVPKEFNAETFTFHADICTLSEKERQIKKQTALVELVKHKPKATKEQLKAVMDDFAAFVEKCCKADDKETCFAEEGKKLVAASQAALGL

Take `OC[C@H]1OC(O)[C@H](O)[C@@H]1O` (some centres not stated): the figures for the fraction unbound in data set [1], in data set [2] and in data set [3] were 0.36, 0.11 and 0.25, respectively.

On to `CC(=O)Oc1ccccc1C(=O)O` [ASPIRIN], for which the fraction unbound in data set [1] is 0.48; in data set [2] it was 0.1; in data set [3], 0.16.

As to `Cn1c(=O)c2c(ncn2C)n(C)c1=O` [CAFFEINE], in data set [4], the fraction unbound at 0.5 h was 0.625. The fraction unbound in data set [1] is 0.71; in data set [2] it was 0.27; in data set [3], 0.67.

Take `CN/C(=N/CCSCc1nc[nH]c1C)NC#N` [CIMETIDINE]: the values for the fraction unbound in data set [1], in data set [2] and in data set [3] were 0.74, 0.42 and 0.66, respectively.

`COc1ccc2nc([S@@+]([O-])Cc3ncc(C)c(OC)c3C)[nH]c2c1` [ESOMEPRAZOLE]: the fraction unbound in data set [1] is 0.04; in data set [3], 0.02.

Turning to `N[C@H]1C(O)O[C@H](CO)[C@@H](O)[C@@H]1O` (some centres not stated) [GLUCOSAMINE], the fraction unbound is 0.71 in data set [1], 0.26 in data set [2] and 0.46 in data set [3].

Consider `CC(C)NCC(O)COc1cccc2ccccc12` (configuration not stated) [PROPRANOLOL], for which, in data set [5], the fraction unbound at 18 h is 0.14. Moreover, the fraction unbound in data set [1] was 0.49; in data set [2], 0.21; in data set [3], 0.41.
